Tests used:
[1] = tested on: Mouse 3T3-L1 preadipocytes; test: 3T3-L1 adipocyte differentiation assay; format: cell-based; conditions: 0.1 μM compared to Compound 1 at equal concentration; pre-adipocytes to adipocytes
Protocol: Mouse 3T3-L1 cells were grown in 96-well tissue culture plates containing growing medium (DME containing 10% calf serum (CS) plus glutamine-pen-strep) at a density of 3,000 cells/well. Two days after reaching confluence, cells are treated with the different compounds in DM (Day 0). Compound 1 is included in all the experiments, and its ability to differentiate 3T3-L1 cells at 0.1 μM is taken as reference for 100% differentiation. After 7 days the lipid content of the cells was determined.
Prior to testing compounds in vivo, they can be run through the in vitro adipocyte differentiation assay based on the protocol of Zhang, et al. (1996) Negative Regulation of Peroxisome Proliferator—Activated Receptor—γGene Expression Contributes to the Antiadipogenic effects of Tumor Necrosis Factor—α. Mol. Endo. 10:1457-1456, incorporated herein by reference. In short, mouse 3T3-L1 preadipocytes are grown in culture medium containing 10% calf serum supplemented with antibiotics. Two days after reaching confluence, cells are treated with the selected compound at different concentrations dissolved in medium containing 10% fetal calf serum supplemented with antibiotics and kept at 10% CO2. The test compounds are replaced every 2-3 days. Differentiation is assessed after 7 days of treatment by the lipid content in the cells, using the Triglyceride (INFINITY) reagent (Sigma Chemical, St. Louis, Mo.).
The ability of a compound to induce preadipocytes to differentiate into adipocytes is an indicator of its antidiabetic activity. This allows for screening many compounds in a simple in vitro assay, thus avoiding the task of testing all compounds in vivo. The adipocyte differentiation assay is based on the protocol of Zhang, et al. (1996) Negative Regulation of Peroxisome Proliferator-Activated Receptor-γ Gene Expression Contributes to the Antiadipogenic effects of Tumor Necrosis Factor—α. Mol. Endo. 10:1457-1456, incorporated herein by reference at least for material related to adipocyte differentiation assays. Mouse 3T3-L1 preadipocytes are grown in culture medium containing 10% calf serum supplemented with antibiotics. Two days after reaching confluence, cells are treated with the selected compound at different concentrations dissolved in medium containing 10% fetal calf serum supplemented with antibiotics and kept at 10% CO2. The test compounds are replaced every 2-3 days. Differentiation is assessed after 7 days of treatment by the lipid content in the cells, using the Triglyceride (INFINITY) reagent (Sigma Chemical, St. Louis, Mo.) (see FIG. 15).

[2] = tested on: BALB/c mice; test: Effect on serum triglyceride levels in wild type BALB/c mice; format: in vivo, mouse; conditions: FIG. 12
Protocol: The animals were treated with a single daily oral dose of the test compound suspended in sesame oil (dose volume of 5 ml/kg). […], Animas treated with 10 and 30 mg/kg of Compound 1, which are doses that are 30 and 100 times the efficacious does in diabetic db/db mice, respectively, caused no increase in serum triglyceride levels compared to vehicle treated control animals.
Test compounds are tested in wild type mice at 10-100 times the efficacious dose in diabetic mice. Typically, adult male BALB/c mice are housed in a fixed 12—12-hr artificial light-dark cycle, and maintained on a standard rodent diet. The animals are treated with a single daily oral dose of the test compound suspended in sesame oil (dose volume of 5 ml/kg) as also described in the examples. Approximately two weeks later the animals are bled from the tail vein, then necropsied following sacrifice by carbon dioxide asphyxiation. Several serum biochemical parameters are measured. Of special significance is the effect the selected compounds have on serum triglyceride levels compared to vehicle treated control animals.
For these studies, adult male BALB/c mice were housed in a fixed 12—12-hr artificial light-dark cycle, and maintained on a standard rodent diet. The animals were treated with a single daily oral dose of the test compound suspended in sesame oil (dose volume of 5 ml/kg).

Cc1cc2c(cc1-c1cc(C=C3SC(=O)NC3=O)ccc1OC(F)(F)F)C(C)(C)CCC2(C)C [Compound 1]
Differentiation Activity [1]: 100% | serum triglyceride levels compared to vehicle treated control animals ([2]; 10 and 30 mg/kg, daily oral, 14 days): no increase | triglyceride levels compared to vehicle treated controls ([2]; 10 and 30 mg/kg/day for 10 days): does not change

Reference: patent publication US7265139B2, “RXR activating molecules” (Incyte San Diego Inc., priority 2001, dated 2007)
